# Experimental data: US10758534B2 (Vertex Pharmaceuticals Incorporated, priority 2014, dated 2020)
# Target: T1, F508del (Homo sapiens, UniProt P13569, DEL508-508)
# T1 construct: expressed in transfected cells
# Test: Protocol 1: membrane potential optical assay (FLIPR III, voltage sensing dye), identification of potentiator compounds
# Format: cell-based
# Conditions: Table 3, compounds of Table 1
# Summary of the method: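 Mouse NIH 3T3 fibroblasts stably expressing F508del, temperature-corrected at 27 °C for 24 h, pretreated with compound, then loaded with voltage-sensing redistribution dye. Forskolin was added in a single step with a chloride gradient (chloride-free gluconate bath; Bath Solution #1 HEPES pH 7.4). Membrane-potential fluorescence read on FLIPR III.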
# T1 sequence (P13569 with tags, fused parts or gaps DEL508-508): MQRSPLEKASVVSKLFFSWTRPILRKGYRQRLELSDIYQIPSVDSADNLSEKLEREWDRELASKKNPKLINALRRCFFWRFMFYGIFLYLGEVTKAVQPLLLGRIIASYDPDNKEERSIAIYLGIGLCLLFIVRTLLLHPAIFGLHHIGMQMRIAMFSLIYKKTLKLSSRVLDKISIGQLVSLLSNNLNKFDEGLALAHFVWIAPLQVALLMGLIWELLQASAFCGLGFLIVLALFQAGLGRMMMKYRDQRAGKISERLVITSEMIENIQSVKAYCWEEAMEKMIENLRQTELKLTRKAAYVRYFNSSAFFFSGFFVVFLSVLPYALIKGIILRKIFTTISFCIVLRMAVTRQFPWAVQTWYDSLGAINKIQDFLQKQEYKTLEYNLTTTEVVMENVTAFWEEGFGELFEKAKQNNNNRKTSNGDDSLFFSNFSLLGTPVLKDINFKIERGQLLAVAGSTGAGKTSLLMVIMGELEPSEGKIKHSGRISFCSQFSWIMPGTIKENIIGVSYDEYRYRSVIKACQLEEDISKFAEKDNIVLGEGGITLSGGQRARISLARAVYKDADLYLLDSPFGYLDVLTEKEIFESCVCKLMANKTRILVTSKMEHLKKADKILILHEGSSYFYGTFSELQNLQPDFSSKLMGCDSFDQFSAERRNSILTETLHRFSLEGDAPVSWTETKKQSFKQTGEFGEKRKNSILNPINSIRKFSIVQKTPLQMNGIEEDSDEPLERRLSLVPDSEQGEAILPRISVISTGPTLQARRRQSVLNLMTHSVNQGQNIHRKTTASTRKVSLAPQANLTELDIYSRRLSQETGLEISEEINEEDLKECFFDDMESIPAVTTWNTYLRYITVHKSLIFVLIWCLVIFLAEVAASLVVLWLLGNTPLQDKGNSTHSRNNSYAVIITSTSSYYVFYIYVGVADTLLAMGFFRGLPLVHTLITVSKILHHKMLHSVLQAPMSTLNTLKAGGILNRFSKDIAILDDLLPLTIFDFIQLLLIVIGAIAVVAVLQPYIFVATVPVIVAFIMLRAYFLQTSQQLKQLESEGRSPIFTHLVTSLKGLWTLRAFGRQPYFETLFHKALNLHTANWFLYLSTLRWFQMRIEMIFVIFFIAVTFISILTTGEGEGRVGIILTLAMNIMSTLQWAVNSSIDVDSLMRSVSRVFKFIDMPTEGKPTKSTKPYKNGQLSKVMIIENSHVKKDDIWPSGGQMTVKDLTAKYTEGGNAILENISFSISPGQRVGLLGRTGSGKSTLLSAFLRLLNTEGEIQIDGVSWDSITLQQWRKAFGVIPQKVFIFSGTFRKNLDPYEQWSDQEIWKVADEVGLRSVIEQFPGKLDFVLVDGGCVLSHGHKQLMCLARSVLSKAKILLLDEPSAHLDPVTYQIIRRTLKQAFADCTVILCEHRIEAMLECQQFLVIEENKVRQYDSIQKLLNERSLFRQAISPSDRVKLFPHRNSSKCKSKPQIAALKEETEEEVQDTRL
row,Compound,EC30
1,"CC#Cc1ccc(C(=O)NS(=O)(=O)c2cccc(N)n2)c(Oc2c(C)cc(C)cc2C)n1 [Compound 1172, N-[(6-amino-2-pyridyl)sulfonyl]-6-prop-1-ynyl-2-(2,4,6-trimethylphenoxy)pyridine-3-carboxamide]",++ (“++” means between 3 uM and 10 uM)
2,"CCOc1cccc2c1CN(Cc1c(C)cc(C)cc1C)C2(C)C(=O)NS(=O)(=O)c1cccc(F)c1 (centres unmarked) [Compound 1425, 4-ethoxy-N-(3-fluorophenyl)sulfonyl-1-methyl-2-[(2,4,6-trimethylphenyl)methyl]isoindoline-1-carboxamide]",+++ (“+++” means <3 uM)
3,"COc1ncc(-c2ccc(C(=O)NS(=O)(=O)c3nccnc3N)c(Oc3c(C)cc(C)cc3C)n2)cc1C [Compound 1249, N-(3-aminopyrazin-2-yl)sulfonyl-6-(6-methoxy-5-methyl-3-pyridyl)-2-(2,4,6-trimethylphenoxy)pyridine-3-carboxamide]",+++ (“+++” means <3 uM)
4,"CC(C)CC(C)Nc1ccc(-c2ccc(C(=O)NS(=O)(=O)c3cccc(N)n3)c(N3[C@H](C)CC[C@@H]3C)n2)cn1 (stereo in doubt) [Compound 1463, N-[(6-amino-2-pyridyl)sulfonyl]-6-[6-[[(1 S)-1,3-dimethylbutyl]amino]-3-pyridyl]-2-[(2S,5R)-2,5-dimethylpyrrolidin-1-yl]pyridine-3-carboxamide]",+++ (“+++” means <3 uM)
5,"CC1CN(c2ncc(C3=CC4CCC3C4)cc2C(=O)NS(=O)(=O)c2cccc(N)n2)C(C)(C)C1 (centres unmarked) [Compound 1888, N-[(6-amino-2-pyridyl)sulfonyl]-5-(3-bicyclo[2.2.1]hept-2-enyl)-2-(2,2,4-trimethylpyrrolidin-1-yl)pyridine-3-carboxamide]",++ (“++” means between 3 uM and 10 uM)
6,"CCOc1cccc2c1CN(Cc1c(C)cc(C)cc1C)C2(C)C(=O)NS(=O)(=O)c1cccnc1N (centres unmarked) [Compound 1591, N-[(2-amino-3-pyridyl)sulfonyl]-4-ethoxy-1-methyl-2-[(2,4,6-trimethylphenyl)methyl]isoindoline-1-carboxamide]",+++ (“+++” means <3 uM)
7,"Cc1ccccc1-c1nc(C(C)(C)C)ccc1C(=O)NS(=O)(=O)c1cccc(N)c1 [Compound 1036, N-(3-aminophenyl)sulfonyl-6-tert-butyl-2-(o-tolyl)pyridine-3-carboxamide]",+ (“+” means greater than 10 uM)
8,"Cc1cc(C)c(Oc2nc(-c3ccc(C(C)(C)O)cc3)ccc2C(=O)NS(=O)(=O)c2cccc(N)n2)c(C)c1 [Compound 1147, N-[(6-amino-2-pyridyl)sulfonyl]-6-[4-(1-hydroxy-1-methyl-ethyl)phenyl]-2-(2,4,6-trimethylphenoxy)pyridine-3-carboxamide]",++ (“++” means between 3 uM and 10 uM)
9,"CC(C)COc1cc(F)cc(-c2ccc(C(=O)NS(=O)(=O)c3cccc(N)c3)c(N3CCC(C)(C)CC3)n2)c1 [Compound 1014, N-(3-aminophenyl)sulfonyl-2-(4,4-dimethyl-1-piperidyl)-6-(3-fluoro-5-isobutoxy-phenyl)pyridine-3-carboxamide]",+++ (“+++” means <3 uM)
10,"CC1CN(c2ncccc2C(=O)NS(=O)(=O)c2cccc(N3CCCCCC3)n2)C(C)(C)C1 (centres unmarked) [Compound 1932, N—[[6-(azepan-1-yl)-2-pyridyl]sulfonyl]-2-(2,2,4-trimethylpyrrolidin-1-yl)pyridine-3-carboxamide]",+++ (“+++” means <3 uM)
11,"Cc1cn(-c2ccc(C(=O)NS(=O)(=O)c3cccc(N)n3)c(N3C[C@@H](C)CC3(C)C)n2)nc1OCC(C)C [Compound 1532, N-[(6-amino-2-pyridyl)sulfonyl]-6-(3-isobutoxy-4-methyl-pyrazol-1-yl)-2-[(4S)-2,2,4-trimethylpyrrolidin-1-yl]pyridine-3-carboxamide]",+++ (“+++” means <3 uM)
12,CC(C)COc1cc(F)cc(-c2ccc(C(=O)NS(=O)(=O)c3cccc(N)n3)c(C3=C[C@H](C)CC3(C)C)n2)c1 [Compound 1961],+++ (“+++” means <3 uM)
13,"COc1c(C)cccc1-c1ccc(C(=O)NS(=O)(=O)c2ccc[nH]c2=O)c(N2C[C@@H](C)CC2(C)C)n1 [Compound 1880, 6-(2-methoxy-3-methyl-phenyl)-N-[(2-oxo-1H-pyridin-3-yl)sulfonyl]-2-[(4S)-2,2,4-trimethylpyrrolidin-1-yl]pyridine-3-carboxamide]",++ (“++” means between 3 uM and 10 uM)
14,"CC(C)(C)c1ccc(C(=O)NS(=O)(=O)c2cccc(N)n2)c(N2CCC[C@@H](c3ccccc3)C2)n1 [Compound 1261, N-[(6-amino-2-pyridyl)sulfonyl]-6-tert-butyl-2-[(3S)-3-phenyl-1-piperidyl]pyridine-3-carboxamide]",+++ (“+++” means <3 uM)
15,"COC1CCN(c2nc(-c3cc(F)cc(OCC(C)C)c3)ccc2C(=O)NS(=O)(=O)c2ccn[nH]2)CC1 [Compound 1245, 6-(3-fluoro-5-isobutoxy-phenyl)-2-(4-methoxy-1-piperidyl)-N-(1H-pyrazol-5-ylsulfonyl)pyridine-3-carboxamide]",+ (“+” means greater than 10 uM)
16,"CC1CN(c2ncccc2C(=O)NS(=O)(=O)c2cccc(Nc3cccc(Cl)c3)n2)C(C)(C)C1 (centres unmarked) [Compound 1841, N—[[6-(3-chloroanilino)-2-pyridyl]sulfonyl]-2-(2,2,4-trimethylpyrrolidin-1-yl)pyridine-3-carboxamide]",+++ (“+++” means <3 uM)
17,"COc1ccc(-c2ccc(C(=O)NS(=O)(=O)c3cccc(N)n3)c(Oc3c(C)cc(C)cc3C)n2)c(OC)c1 [Compound 950, N-[(6-amino-2-pyridyl)sulfonyl]-6-(2,4-dimethoxyphenyl)-2-(2,4,6-trimethylphenoxy)pyridine-3-carboxamide]",+++ (“+++” means <3 uM)
18,"CC(C)Oc1ccc(-c2ccc(C(=O)NS(=O)(=O)c3ccc(OCc4ccccc4)c(N)n3)c(N3[C@H](C)CC[C@@H]3C)n2)cn1 [Compound 1588, N-[(6-amino-5-benzyloxy-2-pyridyl)sulfonyl]-2-[(2S,5R)-2,5-dimethylpyrrolidin-1-yl]-6-(6-isopropoxy-3-pyridyl)pyridine-3-carboxamide]",+++ (“+++” means <3 uM)
19,"COc1cc(-c2ccc(C(=O)NS(=O)(=O)c3cccc(N)n3)c(Oc3c(C)cc(C)cc3C)n2)c(F)cn1 [Compound 1277, N-[(6-amino-2-pyridyl)sulfonyl]-6-(5-fluoro-2-methoxy-4-pyridyl)-2-(2,4,6-trimethylphenoxy)pyridine-3-carboxamide]",+++ (“+++” means <3 uM)
20,"CC(C)COc1cc(F)cc(-c2ccc(C(=O)NS(=O)(=O)c3ccn[nH]3)c(N3C[C@@H](C)CC3(C)C)n2)c1 [Compound 1041, 6-(3-fluoro-5-isobutoxy-phenyl)-N-(1H-pyrazol-5-ylsulfonyl)-2-[(4S)-2,2,4-trimethylpyrrolidin-1-yl]pyridine-3-carboxamide]",+++ (“+++” means <3 uM)
21,"Cc1cc(C)c(Oc2nc(-c3cccc(OCC4CC4)c3)ccc2C(=O)NS(=O)(=O)c2ccc[nH]c2=O)c(C)c1 [Compound 1105, 6-[3-(cyclopropylmethoxy)phenyl]-N-[(2-oxo-1H-pyridin-3-yl)sulfonyl]-2-(2,4,6-trimethylphenoxy)pyridine-3-carboxamide]",+ (“+” means greater than 10 uM)
22,"COc1cc(OC)cc(-c2ccc(C(=O)NS(=O)(=O)c3cccc(N)n3)c(Oc3c(C)cc(C)cc3C)n2)c1 [Compound 828, N-[(6-amino-2-pyridyl)sulfonyl]-6-(3,5-dimethoxyphenyl)-2-(2,4,6-trimethylphenoxy)pyridine-3-carboxamide]",+++ (“+++” means <3 uM)
23,"Cc1ccc(-c2ccc(C(=O)NS(=O)(=O)c3cccc(N)n3)c(Oc3ccc(C)cc3C)n2)cc1 [Compound 1015, N-[(6-amino-2-pyridyl)sulfonyl]-2-(2,4-dimethylphenoxy)-6-(p-tolyl)pyridine-3-carboxamide]",+++ (“+++” means <3 uM)
24,"C[C@@H]1CN(c2nc(-c3cccc4ccccc34)ccc2C(=O)NS(=O)(=O)c2cccnc2N)C(C)(C)C1 [Compound 1857, N-[(2-amino-3-pyridyl)sulfonyl]-6-(1-naphthyl)-2-[(4S)-2,2,4-trimethylpyrrolidin-1-yl]pyridine-3-carboxamide]",+++ (“+++” means <3 uM)
25,"CC1CN(c2ncccc2C(=O)NS(=O)(=O)c2cccc(NCc3nccs3)n2)C(C)(C)C1 (centres unmarked) [Compound 1865, N—[[6-(thiazol-2-ylmethylamino)-2-pyridyl]sulfonyl]-2-(2,2,4-trimethylpyrrolidin-1-yl)pyridine-3-carboxamide]",++ (“++” means between 3 uM and 10 uM)
26,"Cc1cc(C)c(Oc2nc(C)ccc2C(=O)NS(=O)(=O)c2cccc(N(C)C)n2)c(C)c1 [Compound 1250, N-[[6-(dimethylamino)-2-pyridyl]sulfonyl]-6-methyl-2-(2,4,6-trimethylphenoxy)pyridine-3-carboxamide]",+++ (“+++” means <3 uM)
27,"CC1CN(c2ncccc2C(=O)NS(=O)(=O)c2cccc(OCc3ccc(Cl)cc3Cl)n2)C(C)(C)C1 (centres unmarked) [Compound 1929, N—[[6-[(2,4-dichlorophenyl)methoxy]-2-pyridyl]sulfonyl]-2-(2,2,4-trimethylpyrrolidin-1-yl)pyridine-3-carboxamide]",+++ (“+++” means <3 uM)
28,"CCOc1ccc(C)cc1-c1ccc(C(=O)NS(=O)(=O)c2cccnc2N)c(N2C[C@@H](C)CC2(C)C)n1 [Compound 1964, N-[(2-amino-3-pyridyl)sulfonyl]-6-(2-ethoxy-5-methyl-phenyl)-2-[(4S)-2,2,4-trimethylpyrrolidin-1-yl]pyridine-3-carboxamide]",+++ (“+++” means <3 uM)
29,"COc1ncccc1S(=O)(=O)NC(=O)c1ccc(-c2cc(F)cc(OC(C)C)c2)nc1-c1ccc(C)cc1 [Compound 798, 6-(3-fluoro-5-isopropoxy-phenyl)-N-[(2-methoxy-3-pyridyl)sulfonyl]-2-(p-tolyl)pyridine-3-carboxamide]",+++ (“+++” means <3 uM)
